Values joined by “and” are separate entries in the source; they are usually repeats but may differ in a detail not shown here. Equal entries are not always repeated. Inconclusive results and toxic doses are left out. The calls were made as follows: active = survival T/C of 150% or more; inactive = T/C below 125% in these data.
Tested on: P388 leukemia ip, CD2F1 mice, survival T/C
Assay: NCI In Vivo Anticancer Drug Screen. Data for tumor model P388 Leukemia (intraperitoneal) in CD2F1 (CDF1) mice
Details: endpoint: median survival time, higher = longer survival
Procedure, shortened: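 Mice carrying the transplanted tumor received test compound or vehicle. Survival was recorded in each group, and the value is the treated-group measurement divided by that of the vehicle-treated control group.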

[1] = dose: 100.0 mg/kg/injection, schedule: Q01DX001 (ip), vehicle: saline with Tween-80
[2] = dose: 400.0 mg/kg/injection, schedule: Q01DX001 (ip), vehicle: saline with Tween-80
[3] = dose: 50.0 mg/kg/injection, schedule: Q01DX005 (ip), vehicle: saline with Tween-80
[4] = dose: 100.0 mg/kg/injection, schedule: Q01DX005 (ip), vehicle: saline with Tween-80
[5] = dose: 200.0 mg/kg/injection, schedule: Q01DX005 (ip), vehicle: saline with Tween-80
[6] = dose: 50.0 mg/kg/injection, schedule: Q01DX005 (ip), vehicle: Klucel (hydroxypropylcellulose) (HPC)
[7] = dose: 100.0 mg/kg/injection, schedule: Q01DX005 (ip), vehicle: Klucel (hydroxypropylcellulose) (HPC)
[8] = dose: 200.0 mg/kg/injection, schedule: Q01DX005 (ip), vehicle: Klucel (hydroxypropylcellulose) (HPC)
[9] = dose: 120.0 mg/kg/injection, schedule: Q01DX005 (ip), vehicle: saline with Tween-80
[10] = dose: 240.0 mg/kg/injection, schedule: Q01DX005 (ip), vehicle: saline with Tween-80
[11] = dose: 50.0 mg/kg/injection, schedule: Q01DX009 (ip), vehicle: saline with Tween-80
[12] = dose: 60.0 mg/kg/injection, schedule: Q01DX005 (ip), vehicle: saline with Tween-80
[13] = dose: 50.0 mg/kg/injection, schedule: Q04DX003 (ip), vehicle: saline with Tween-80
[14] = dose: 200.0 mg/kg/injection, schedule: Q04DX003 (ip), vehicle: saline with Tween-80

Measured: T/C

CCOC(=O)Nc1c(C)noc1NC(C)=O
inactive: [1] 100 % of control | dose: 200.0 mg/kg/injection, schedule: Q01DX001 (ip), vehicle: saline with Tween-80 100 % of control | [2] 95 % of control

CCC(CC)NCCCNc1cc(OC)cc2cccnc12
inactive: dose: 12.5 mg/kg/injection, schedule: Q01DX005 (ip), vehicle: saline 108 % of control | dose: 25.0 mg/kg/injection, schedule: Q01DX005 (ip), vehicle: saline 104 % of control

CC(C)=NOC(=O)Nc1ccc(F)cc1
inactive: dose: 60.0 mg/kg/injection, schedule: Q01DX005 (ip), vehicle: Klucel (hydroxypropylcellulose) (HPC) 93 % of control | dose: 120.0 mg/kg/injection, schedule: Q01DX005 (ip), vehicle: Klucel (hydroxypropylcellulose) (HPC) 103 % of control | dose: 240.0 mg/kg/injection, schedule: Q01DX005 (ip), vehicle: Klucel (hydroxypropylcellulose) (HPC) 106 % of control

O=c1n(-c2ccccc2)c(=O)n2c(=O)n(-c3ccccc3)c(=O)n12
inactive: dose: 50.0 mg/kg/injection, schedule: Q01DX009 (ip), vehicle: Klucel (hydroxypropylcellulose) (HPC) 105 % of control | dose: 100.0 mg/kg/injection, schedule: Q01DX009 (ip), vehicle: Klucel (hydroxypropylcellulose) (HPC) 93 % of control | dose: 200.0 mg/kg/injection, schedule: Q01DX009 (ip), vehicle: Klucel (hydroxypropylcellulose) (HPC) 89 % of control

CC(=O)Nc1ccc(S(=O)(=O)Nc2cnccn2)cc1
inactive: [1] 93 % of control

Oc1ccc(O)c2c(O)c3ccccc3c(O)c12
inactive: [3] 102 % of control | [4] 107 % of control | [5] 93 % of control

CSC1=Nc2ccccc2N=C(N2CCCC2)C1
inactive: [6] 103 % of control | [7] 97 % of control | [8] 97 % of control

C[C@H]1CC[C@@]2(C)C(CCC(=O)C2(C)O)[C@]1(C)CC(=O)c1ccoc1 (some centres undefined)
inactive: dose: 3.75 mg/kg/injection, schedule: Q01DX005 (ip), vehicle: Klucel (hydroxypropylcellulose) (HPC) 91 % of control | dose: 7.5 mg/kg/injection, schedule: Q01DX005 (ip), vehicle: Klucel (hydroxypropylcellulose) (HPC) 88 % of control | dose: 15.0 mg/kg/injection, schedule: Q01DX005 (ip), vehicle: Klucel (hydroxypropylcellulose) (HPC) 88 % of control | dose: 30.0 mg/kg/injection, schedule: Q01DX005 (ip), vehicle: Klucel (hydroxypropylcellulose) (HPC) 88 % of control

O=C(NN1C(=O)CSC1c1ccc(Cl)cc1Cl)c1ccncc1 (centres undefined)
inactive: dose: 25.0 mg/kg/injection, schedule: Q01DX005 (ip), vehicle: saline with Tween-80 101 % of control | [3] 98 % of control | [4] 93 % of control | [9] 100 % of control | [10] 90 % of control

Nc1ccc(S(=O)(=O)F)cc1Cl
inactive: dose: 50.0 mg/kg/injection, schedule: Q01DX009 (ip), vehicle: saline 100 % of control | dose: 100.0 mg/kg/injection, schedule: Q01DX009 (ip), vehicle: saline 97 % of control | dose: 200.0 mg/kg/injection, schedule: Q01DX009 (ip), vehicle: saline 111 % of control

N/C(=C\S(=O)(=O)c1ccccc1)C12CC3CC(CC(C3)C1)C2
inactive: [11] 94 % of control | dose: 100.0 mg/kg/injection, schedule: Q01DX009 (ip), vehicle: saline with Tween-80 94 % of control | dose: 200.0 mg/kg/injection, schedule: Q01DX009 (ip), vehicle: saline with Tween-80 87 % of control

C1CNC(C2=NCCN2)=N1
inactive: [3] 108 % of control | [4] 101 % of control | [5] 97 % of control

CC(=O)[C@H]1C[C@H](O)[C@H]2[C@@H]3CCC4=CC(=O)CC[C@]4(C)[C@H]3C[C@@H](O)[C@@]21C
inactive: [6] 100 % of control | [7] 100 % of control | [8] 97 % of control

S=CN1CCCCC1
inactive: dose: 15.0 mg/kg/injection, schedule: Q01DX005 (ip), vehicle: saline with Tween-80 98 % of control | dose: 30.0 mg/kg/injection, schedule: Q01DX005 (ip), vehicle: saline with Tween-80 106 % of control | [12] 106 % of control

C=C(C1=CC(=O)C(C)=C(OC)C1=O)C(CC=C(C)C)OC(=O)/C(C)=C/C (centres undefined)
inactive: dose: 1.56 mg/kg/injection, schedule: Q01DX005 (ip), vehicle: Klucel (hydroxypropylcellulose) (HPC) 92 % of control | dose: 3.12 mg/kg/injection, schedule: Q01DX005 (ip), vehicle: Klucel (hydroxypropylcellulose) (HPC) 99 % of control | dose: 6.25 mg/kg/injection, schedule: Q01DX005 (ip), vehicle: Klucel (hydroxypropylcellulose) (HPC) 101 % of control | dose: 12.5 mg/kg/injection, schedule: Q01DX005 (ip), vehicle: Klucel (hydroxypropylcellulose) (HPC) 96 % of control | dose: 25.0 mg/kg/injection, schedule: Q01DX005 (ip), vehicle: Klucel (hydroxypropylcellulose) (HPC) 102 % of control

COc1ccc(NC(=O)c2cc3ccc4c5ccccc5[nH]c4c3cc2O)cc1
inactive: [3] 90 % of control | [4] 88 % of control

CCOc1cc(=O)cc2n(-c3cc(OCC)c(OC)c(OCC)c3)c3ccccc3nc1-2
inactive: dose: 50.0 mg/kg/injection, schedule: Q01DX009 (ip), vehicle: suspension in saline 101 % of control | dose: 100.0 mg/kg/injection, schedule: Q01DX009 (ip), vehicle: suspension in saline 101 % of control | dose: 200.0 mg/kg/injection, schedule: Q01DX009 (ip), vehicle: suspension in saline 90 % of control

CCCCCCCCCCC(N)P(=O)(O)O (centres undefined)
inactive: dose: 12.5 mg/kg/injection, schedule: Q01DX009 (ip), vehicle: saline with Tween-80 104 % of control | dose: 25.0 mg/kg/injection, schedule: Q01DX009 (ip), vehicle: saline with Tween-80 100 % of control | [11] 100 % of control

O=S1(=O)CS/C(=N\C(=S)N(c2ccccc2)c2ccccc2)N1c1ccccc1
inactive: dose: 3.13 mg/kg/injection, schedule: Q04DX003 (ip), vehicle: saline with Tween-80 106 % of control | dose: 6.25 mg/kg/injection, schedule: Q04DX003 (ip), vehicle: saline with Tween-80 99 % of control | dose: 12.5 mg/kg/injection, schedule: Q04DX003 (ip), vehicle: saline with Tween-80 94 % of control and 95 % of control | [13] 86 % of control | [14] 93 % of control

CCNC1(N(C)C)N=C(N(C)C)N=C(N(C)C)O1 (centres undefined)
inactive: dose: 50.0 mg/kg/injection, schedule: Q01DX005 (ip), vehicle: saline 96 % of control | dose: 100.0 mg/kg/injection, schedule: Q01DX005 (ip), vehicle: saline 96 % of control

CCSc1nc(C)cc(Cl)n1
inactive: [13] 100 % of control | dose: 100.0 mg/kg/injection, schedule: Q04DX003 (ip), vehicle: saline with Tween-80 100 % of control | [14] 113 % of control

Cc1c2c(c(C)c3c1C(=O)c1cc4c(cc1C3=O)OCO4)OC(C)O2
inactive: [12] 89 % of control | [9] 89 % of control | [10] 91 % of control

CC1N(N2C(=O)CS(=O)(=O)C2C)C(=O)CS1(=O)=O (centres undefined)
inactive: [3] 90 % of control | [4] 95 % of control | [5] 89 % of control

C=C(C)[C@H]1C[C@@H]2O[C@]2(C)[C@@H](O)C1
inactive: dose: 100.0 mg/kg/injection, schedule: Q04DX002 (ip), vehicle: saline 94 % of control | dose: 200.0 mg/kg/injection, schedule: Q04DX002 (ip), vehicle: saline 102 % of control | dose: 400.0 mg/kg/injection, schedule: Q04DX002 (ip), vehicle: saline 96 % of control

COc1ccc(/C=N/N2C(=O)c3ccccc3C2=O)cc1
inactive: [6] 105 % of control | [7] 93 % of control | [8] 100 % of control

NC1CC2(CCC1=O)c1ccccc1-c1ccccc12 (centres undefined)
inactive: [1] 105 % of control | [2] 102 % of control
